# According to patent US8211883B2, “Topical delivery of phthalocyanines” (priority 2004, dated 2012):
# Counter-ions that a name gives are not always drawn.
# Experiments:
# [1] = test system: Chinese hamster V79-379 lung fibroblasts; test: Uptake of phthalocyanines into V79 cells
# Summary of the method: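 V79-379 cells were incubated with phthalocyanine for 18 h, typically at 1, 2 and/or 4 μM. Cells collected on filters were extracted into ethanol and absorbance read at the peak, usually 668 nm. Values are nmol per 10^6 cells, using ε 2.93×10^5.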
# [2] = test system: Chinese hamster V79-379 lung fibroblasts; test: Growth delay of V79 cultures after phthalocyanine and red light; type: cell-based; conditions: V79 cells; for Growth Delay (12 kj/m^2), Efficiency Relative to 1 μM (AlPcCl): 18 hours, 12 kJ/m^2 red light
# Protocol: At the time of light exposure, there were approximately 1.5×10^5 cells per 25 cm^2 flask. Following irradiation, the HBSS was replaced by 10 mL of fresh complete growth medium, and the cultures were returned to the 37° C. incubator. At various times before and after irradiation, duplicate cultures were trypsinized and counted. Controls included untreated cells and cells treated with light alone or drug alone. In addition, in each experiment, the drug to be tested was compared to a standard treatment, i.e. 1 μM AlPcCl for 18 hours followed by 12 kJ/m^2 light.
# The inhibition of V79 culture growth was measured during a three day period following red light irradiation (12 kJ/m^2) of phthalocyanine-pretreated cells. With each of the active compounds, as well as with AlPcCl, there was an initial decrease in cell density, as dead cells became detached from the monolayer. Thereafter, the cell number per flask increased, as living cells grew and divided. The time for the cell density to recover to the level at the time of light exposure was considered the growth delay. […] The ratio of the growth delay for the test photosensitizer and the growth delay for AlPcCl measured in the same experiment is recorded in Table 1. There was less inhibition of culture growth when cells were exposed to compounds III, V, or VI as expected from the poor cellular uptake of these drugs.
# [3] = test system: Chinese hamster V79-379 lung fibroblasts; test: Clonogenic cell survival of V79 cells after photodynamic treatment; type: cell-based; conditions: for CF10(AIPcCI)/CF10 (Pc) / F10(AIPcCI)/F10 (Pc): 1.0 μM; for CF10(AIPcCI)/CF10 (Pc): CF10 = product of intracellular concentration and fluence reducing survival to 10%; for F10(AIPcCI)/F10 (Pc): F10 = fluence reducing cell survival to 10%
# Summary of the method: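 V79 cells exposed to 0.5 or 1.0 μM phthalocyanine, then irradiated about 18 h later with increasing fluences of broad-band red light (600 nm high-pass filter). Survival scored as colonies of ≥50 cells. F10 taken from survival curves; CF10 from survival against intracellular concentration × fluence; 1 μM AlPcCl run as reference.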
# [4] = Photolysis of solutions by white light; type: physicochemical
# Solubility = type: physicochemical
# L5178Y cells = test: Induction of apoptosis (DNA ladder) in L5178Y cells after PDT; type: cell-based, Mouse; conditions: for induction of apoptosis: 1 μM at a fluence of 30 kJ/m^2
# [5] = test system: RIF-1 (radiation-induced fibrosarcoma) tumors; test: PDT of RIF-1 implanted tumors; type: in vivo, C3H/HeN mice; parameters: key to Tumor Responses at 24 hours: complete: no evidence of any tumor mass in any animal; only the scar from the photodynamic therapy was evident.; near complete: evidence of any tumor mass in four or five animals; only some tumor mass in one or two animals.; substantial: a significant tumor shrinkage occurred in all animals. In some animals the tumor response was complete, yet in others the response was not complete.; moderate: some tumor shrinkage was evident in some animals. In animals with some tumor shrinkage, scar formation was evident.; slight: some tumor decrease occurred in one or two mice; conditions: 1 mg/kg in corn oil, 675 nm; for Tumor Responses at 24 hours: 135 J/cm^2, light 24 h after dosing; for Doubling Time of Initial Tumor Volume after PDT: 135 J/cm^2, controls 4 days
# Protocol: The relative effectiveness at reducing tumor volume of selected phthalocyanine compounds at a given dosage was compared in vivo. RIF-1, i.e., radiation-induced fibrosarcoma, tumors were implanted into the backs of C3H/HeN mice. One tumor was implanted per mouse. Each of the phthalocyanine compounds listed in Table 7 was sonicated and vortexed in corn oil to produce a suspension. When the tumors reached […] in diameter and 2-3 mm in thickness, each mouse received 1 mg/kg in 0.1 mL of the corn oil, of the phthalocyanine suspension. For comparison, select mice received a conventional photosensitizer; either 5 mg/kg of chloroaluminum phthalocyanine tetrasulfonate, herein also referred to as “AlPcTS” in phosphate buffered saline or 5 mg/kg of Photofrin®-II in 5% dextrose. Twenty-four hours after the photosensitizers were administered, the tumors were irradiated with visible radiation delivered by an argon-pumped dye laser. The mice that received a phthalocyanine photosensitizer received light having a wavelength of 675 nm and the mice that received the Photofrin® II photosensitizer received light having a wavelength of 630 nm. Each tumor received 135 J/cm^2 of radiation. Tumor size was measured every day using calipers. The initial tumor volume was 50±10 mm^3. Tumor volume was calculated according to the hemiellipsoid model by the formula: V=½(4π)/3×(½×(w/2))×h
# • complete—no evidence of any tumor mass in any animal; only the scar from the photodynamic therapy was evident. • near complete—evidence of […] in four or five animals; only some tumor mass in one or two animals. • substantial—a significant tumor shrinkage occurred in all animals. In some animals the tumor response was complete, yet in others the response was not complete. • moderate—some tumor shrinkage was evident in some animals. In animals with some tumor shrinkage, scar formation was evident. • slight—some tumor decrease occurred in one or two mice.
# [6] = test system: human skin keratome biopsies; test: Penetration of topically applied PcIV and salts into human skin, confocal fluorescence microscopy; type: in vitro ADME
# Protocol: Human skin absorption of PcIV was analyzed by fluorescence confocal microscopy. PcIV fluorescence, upon activation with a HeNe laser at 633 nm, was visualized using a 650 long pass filter. Briefly, 0.4 mm thick human keratomes were removed from the gluteal region of healthy volunteers and divided into 1.5 cm×1.5 cm squares of skin. Upon application of PcIV to the epidermis in a vehicle of ethanol and propylene glycol, visualization of penetration of PcIV was achieved by fluorescence. Pc 4 was then prepared as PcIV-pyruvate and PcIV-HCl and applied in the same vehicle as Pc 4 to the epidermis. Three concentrations, namely, 0.1 mg/mL, 0.05 mg/mL, and 0.01 mg/mL were tested per PcIV formulation. Skin was incubated at 37° C. for 1, 2, and 4 hours, along with vehicle controls. […] Maximum PcIV fluorescence was detectable using laser transmission of 3% for the 0.1 mg/mL and 30% for the 0.01 mg/mL. Both PcIV.pyruvate and PcIV.HCl however could be visualized with a laser transmission of 2-3% for the 0.1 mg/mL and 7-9% for the 0.01 mg/mL concentrations.
# The ability of PcIV and the newly prepared PcIV salts (HCl and pyruvate) to penetrate into the epidermis of keratome derived biopsies was examined. The time course of penetrance as well as the effect of dose of the PcIV compounds were evaluated. PcIV and the PcIV.HCl and PcIV.pyruvate salts were resuspended in ethanol (100%, 1 part PcIV, 499 parts ethanol) and then diluted to final concentrations in a 30% Propylene Glycol 70% Ethanol mixture.
# Keratome biopsies of normal skin were obtained from normal volunteers after written consent according to UHHS IRB protocol # 05-95-03. To date, seven experiments have been performed. The range of age for volunteers was 20-40 yrs. Individuals represented Fitzpatrick skin types between I-III. Skin biopsies were held in PBS following the keratome procedure until processed for PcIV Application (less than 1 hr). The keratome skin samples (1.5 cm^2) were overlayed onto sterile gauze in 80 mm tissue culture petri dishes epidermal side down. PcIV compounds were then applied to the corners of the sterile gauze and allowed to “wick” through the gauze and contact the epidermis of the skin for the indicated times. Following the incubation, the tissue was removed from the gauze and washed three times in phosphate buffered saline and held, in PBS, until analysis by confocal microscopy. Confocal images were acquired using a 20×N.A. 0.5 water immersion objective on a Zeiss 510 confocal microscope. PcIV fluorescence was elicited using a 633 nm wavelength for excitation, and collected with a 633 nm dichroic mirror and 650 nm long-pass filter.
# [7] = 0.5 μM, suspended in DMF-Tween 80
# [8] = 0.5 μM, suspended in DMF-Tween 80, product of concentration and fluence
compound,measurement,setting,value
"[Cl][Al]1[n]2c3c4ccccc4c2N=C2N=C(N=c4c5ccccc5c([n]41)=NC1=NC(=N3)c3ccccc31)c1ccccc12 [AlPcCl, chloroaluminum phthalocyanine, reference compound]","Uptake, Efficiency Relative to 1 μM (AlPcCl)","[1]; V79 cells, 18 hours",1.0
same,uptake,"[1]; V79 cells, 1 μM, mean±S. D., 25 determinations",0.723±0.172 nmole/10^7 cells
same,growth delay,[2]; 1 μM for 18 hours and 12 kj/m^2 light,approximately 24 hours
same,"Growth Delay (12 kj/m^2), Efficiency Relative to 1 μM (AlPcCl)",[2],1.0
same,CF10(AIPcCI)/CF10 (Pc),[3],1.0
same,F10(AIPcCI)/F10 (Pc),[3],1.0
"CN(C)CCC[Si](C)(C)[O][Al]1[n]2c3c4ccccc4c2N=C2N=C(N=c4c5ccccc5c([n]41)=NC1=NC(=N3)c3ccccc31)c1ccccc12 [Compound I, AlPcOSi(CH3)2(CH2)3N(CH3)2]","Growth Delay (12 kj/m^2), Efficiency Relative to 1 μM (AlPcCl)",[2],2.1
same,CF10(AIPcCI)/CF10 (Pc),[3],0.51
same,F10(AIPcCI)/F10 (Pc),[3],0.94
"CN(C)CCC[Si](C)(C)O[Si]1(C)n2c3c4ccccc4c2N=C2N=C(N=c4c5ccccc5c(n41)=NC1=NC(=N3)c3ccccc31)c1ccccc12 (stereo not shown) [Compound III, CH3SiPcOSi(CH3)2(CH2)3N(CH3)2]","Uptake, Efficiency Relative to 1 μM (AlPcCl)","[1]; V79 cells, 18 hours",0.07
same,photolysis of solutions,[4],rapidly photolyzed by white light
same,"Growth Delay (12 kj/m^2), Efficiency Relative to 1 μM (AlPcCl)",[2],0.05
"C[N+](C)(C)CCC[Si](C)(C)O[Si]1(O)n2c3c4ccccc4c2N=C2N=C(N=c4c5ccccc5c(n41)=NC1=NC(=N3)c3ccccc31)c1ccccc12.[I-] (stereo not shown) [Compound V, HOSiPcOSi(CH3)2(CH2)3N(CH3)3^+I^−]","Uptake, Efficiency Relative to 1 μM (AlPcCl)","[1]; V79 cells, 18 hours",0.3
same,solubility in H2O,Solubility,insoluble
same,induction of apoptosis,L5178Y cells,did not induce apoptosis
same,Tumor Responses at 24 hours,[5],moderate
same,Doubling Time of Initial Tumor Volume after PDT,[5],6 days
same,"Growth Delay (12 kj/m^2), Efficiency Relative to 1 μM (AlPcCl)",[2],0
same,CF10(AIPcCI)/CF10 (Pc),[3],3.0
same,F10(AIPcCI)/F10 (Pc),[3],0.59
"C[N+](C)(C)CCC[Si](C)(C)O[Si]1(O[Si](C)(C)CCC[N+](C)(C)C)n2c3c4ccccc4c2N=C2N=C(N=c4c5ccccc5c(n41)=NC1=NC(=N3)c3ccccc31)c1ccccc12.[I-].[I-] [Compound VI, SiPc[OSi(CH3)2(CH2)3N(CH3)3)^+I^−]2]","Uptake, Efficiency Relative to 1 μM (AlPcCl)","[1]; V79 cells, 18 hours",0.1
same,solubility in H2O,Solubility,disperses in H2O but doses not dissolve in it
same,induction of apoptosis,L5178Y cells,did not induce apoptosis
same,"Growth Delay (12 kj/m^2), Efficiency Relative to 1 μM (AlPcCl)",[2],0.5
"CN1CCN(CCC[Si](C)(C)O[Si]2(O[Si](C)(C)CCCN3CCN(C)CC3)n3c4c5ccccc5c3N=C3N=C(N=c5c6ccccc6c(n52)=NC2=NC(=N4)c4ccccc42)c2ccccc23)CC1 [Compound XXX, SiPc[OSi(CH3)2(CH2)3NC4H8NCH3]2]",solubility in DMF,Solubility,not soluble in DMF
same,"Fluence, Minimum Demonstrated Condition to Induce Apoptosis",L5178Y cells; [7],15.0 kJ/m^2
same,"C × F Ld90, Minimum Demonstrated Condition to Induce Apoptosis",L5178Y cells; [8],7.5 kJ/m^2
same,Maximum Effect (% survival at kj/m^2),"[3]; concentration not given, at 10 kj/m^2",30% at 10
"C[Si](C)(CCCN1CCNCC1)O[Si]1(O[Si](C)(C)CCCN2CCNCC2)n2c3c4ccccc4c2N=C2N=C(N=c4c5ccccc5c(n41)=NC1=NC(=N3)c3ccccc31)c1ccccc12 [Compound XXXII, SiPc[OSi(CH3)2(CH2)3NC4H8NH]2]",solubility in DMF,Solubility,not soluble in DMF
same,"Fluence, Minimum Demonstrated Condition to Induce Apoptosis",L5178Y cells; [7],5 kJ/m^2
same,"C × F Ld90, Minimum Demonstrated Condition to Induce Apoptosis",L5178Y cells; [8],2.5 kJ/m^2
"C[Si](C)(CCCCNS(C)(=O)=O)O[Si]1(O)n2c3c4ccccc4c2N=C2N=C(N=c4c5ccccc5c(n41)=NC1=NC(=N3)c3ccccc31)c1ccccc12 (stereo not shown) [IX, HOSiPcOSi(CH3)2(CH2)4NHSO2CH3]","Uptake Into V79 Cells, 1 μM","[1]; 1 μM, 18 hours",0.1 ± 0.1 n Moles/10^6 cells
same,"Uptake Into V79 Cells, 4 μM","[1]; 4 μM, 18 hours",1.8 ± 0.8 n Moles/10^6 cells
same,n Moles/10^6 Cells/μM (composite uptake value),"[1]; V79 cells, average of all data, asterisk: listed value is for 1 μM, average would be higher",0.3 n Moles/10^6 Cells/μM
same,"Fluence, Minimum Demonstrated Condition to Induce Apoptosis",L5178Y cells; 0.3 μM,12.0 kJ/m^2
same,"C × F Ld90, Minimum Demonstrated Condition to Induce Apoptosis","L5178Y cells; 0.3 μM, product of concentration and fluence",3.6 kJ/m^2
same,"Fluence, Minimum Demonstrated Condition to Induce Apoptosis",L5178Y cells; 0.5 μM,8.0 kJ/m^2
same,"C × F Ld90, Minimum Demonstrated Condition to Induce Apoptosis","L5178Y cells; 0.5 μM, product of concentration and fluence",4.0 kJ/m^2
same,"Fluence, Minimum Demonstrated Condition to Induce Apoptosis",L5178Y cells; 1.0 μM,12.0 kJ/m^2
same,"C × F Ld90, Minimum Demonstrated Condition to Induce Apoptosis","L5178Y cells; 1.0 μM, product of concentration and fluence",12.0 kJ/m^2
same,Tumor Responses at 24 hours,[5],near complete
same,Doubling Time of Initial Tumor Volume after PDT,[5],11 days
same,Maximum Effect (% survival at kj/m^2),"[3]; 0.5 μM, at 9 kj/m^2",44% at 9
"CN(C)CCC[Si](C)(C)O[Si]1(O)n2c3c4ccccc4c2N=C2N=C(N=c4c5ccccc5c(n41)=NC1=NC(=N3)c3ccccc31)c1ccccc12 (stereo not shown) [PcIV-HCl, HOSiPcOSi(CH3)2(CH2)3N(CH3)2(HCl)]",effect of salt formulation on penetration through the skin,[6],does not hinder the penetration
AlPcOSi(CH3)2(CH2)3N(CH3)3^+I^− [Compound II],"Uptake, Efficiency Relative to 1 μM (AlPcCl)","[1]; V79 cells, 18 hours",1.8
same,solubility in H2O,Solubility,insoluble
same,"Growth Delay (12 kj/m^2), Efficiency Relative to 1 μM (AlPcCl)",[2],3.4
same,CF10(AIPcCI)/CF10 (Pc),[3],0.72
same,F10(AIPcCI)/F10 (Pc),[3],0.99
